This is an account of results in US6410564B1, “Naphthyl compounds, intermediates, processes, compositions, and methods” (Eli Lilly and Company, priority 1994, dated 2002).

Where two headings read alike, the source gives them in different places.

The subject of data set [1] is ovariectomized (OVX) female Sprague Dawley rats. Description: Serum cholesterol in OVX rats, 4-day dosing. Type of data set: in vivo, rat. As to conditions: Rattus norvegicus, po, 96 h, oral daily for 4 days, read-out: Serum Cholesterol (% decrease vs. OVX). The source says:
(§1) Seventy-five day old female Sprague Dawley rats (weight range of 200 to 225 g) were obtained from Charles River Laboratories (Portage, Mich.). The animals were either bilaterally ovariectomized (OVX) or exposed to a Sham surgical procedure at Charles River Laboratories, and then shipped after one week. Upon arrival, they were housed in metal hanging cages in groups of 3 or 4 per cage and had ad libitum access to food (calcium content approximately 0.5%) and water for one week. Room temperature was maintained at 22.2°±1.7° C. with a minimum relative humidity of 40%. The photoperiod in the room was 12 hours light and 12 hours dark.
(§2) Dosing Regimen Tissue Collection. After a one week acclimation period (therefore, two weeks post-OVX) daily dosing with test compound was initiated. 17α-ethynyl estradiol or the test compound were given orally, unless otherwise stated, as a suspension in 1% carboxymethylcellulose or dissolved in 20% cyclodextrin. Animals were dosed daily for 4 days. Following the dosing regimen, animals were weighed and anesthetized with a ketamine: Xylazie (2:1, V:V) mixture and a blood sample was collected by cardiac puncture. The animals were then sacrificed by asphyxiation with CO2, the uterus was removed through a midline incision, and a wet uterine weight was determined.
Cholesterol Analysis. Blood samples were allowed to clot at room temperature for 2 hours, and serum was obtained following centrifugation for 10 minutes at 3000 rpm. Serum cholesterol was determined using a Boehringer Mannheim Diagnostics high performance cholesterol assay. Briefly the cholesterol was oxidized to cholest-4-en-3-one and hydrogen peroxide. The hydrogen peroxide was then reacted with phenol and 4-aminophenazone in the pressure of peroxidase to produce a p-quinone imine dye, which was read spectrophotemetrically at 500 nm. Cholesterol concentration was then calculated against a standard curve. The entire assay was automated using a Biomek Automated Workstation.
(§3) Data presented in Table 1 below show comparative results among ovariectomized rats, rats treated with 17α-ethynyl estradiol (EE2; an orally available form of estrogen), and rats treated with certain compounds of the present invention. […] This uterine response to estrogen is well recognized in the art.
(§4) The data presented in the Tables 1 below reflects the response of 5 to 6 rats per treatment.

In data set [2] the test system is Uterine Eosinophil Peroxidase (EPO). The settings on record: female, Sprague Dawley, rat, in vivo, po, 4 days.
Text: as §1, §2
Uterine Eosinophil Peroxidase (EPO) Assay. Uteri were kept at 4° C. until time of enzymatic analysis. The uteri were then homogenized in 50 volumes of 50 mM Tris Buffer (pH −8.0) containing 0.005% Triton X-100. Upon addition of 0.01% hydrogen peroxide and 10 mM O-phenylenediamine (final concentrations) in Tris buffer, increase in absorbance was monitored for one minute at 450 nm. The presence of eosonophils in the uterus is an indication of estrogenic activity of a compound. The maximal velocity of a 15 second interval was determined over the initial, linear portion of the reaction curve.
As is expressed in the below data, estrogenicity also was assessed by evaluating the adverse response to eosinophil infiltration into the uterus.
as §4

Data set [3] deals with ovariectomized (OVX) female Sprague Dawley rats. Description: Osteoporosis Test Procedure: distal femur metaphysis X-ray image analysis, OVX rats, 35 days. Type of data set: in vivo, rat. As to conditions: mean ± SEM.
Text: as §1
Following the General Preparation Procedure, infra, the rats were treated daily for 35 days (6 rats per treatment group) and sacrificed by carbon dioxide asphyxiation on the 36th day. The 35 day time period was sufficient to allow maximal reduction in bone density, measured as described herein. At the time of sacrifice, the uteri were removed, dissected free of extraneous tissue, and the fluid contents were expelled before determination of wet weight in order to confirm estrogen deficiency associated with complete ovariectomy. […] The uteri were then placed in 10% neutral buffered formalin to allow for subsequent histological analysis.
The right femurs were excised and digitilized x-rays generated and analyzed by an image analysis program (NIH image) at the distal metaphysis. The proximal aspect of the tibiae from these animals were also scanned by quantitative computed tomography.
In accordance with the above procedures, compounds of the present invention and ethynyl estradiol (EE2) in 20% hydroxypropyl β-cyclodextrin were orally administered to test animals. Distal femur metaphysis data presented in Tables 2 and 3 below are the results of formula I compound treatments compared to intact and ovariectomized test animals. Results are reported as the mean ± the standard error of the mean.

In data set [4] the test system is MCF-7 breast adenocarcinoma cells. Description: MCF-7 Proliferation Assay (tritiated thymidine). As to conditions: Homo sapiens, MCF7; MCF-7 cells, 48 hours with drug, tritiated thymidine pulse 4 hours; read-out: IC50. In kind it is cell-based. As to the method: MCF-7 breast adenocarcinoma cells (ATCC HTB 22) were maintained in MEM (minimal essential medium, phenol red-free, Sigma, St. Louis, Mo.) supplimented with 10% fetal bovine serum (FBS) (V/V), L-glutamine ([…]), sodium pyruvate (1 mM), HEPES {(N-[2-hydroxyethyl]piperazine-N′-[2-ethanesulfonic acid]10 mM}, non-essential amino acids and bovine insulin (1 ug/mL) (maintenance medium). Ten days prior to assay, MCF-7 cells were switched to maintenance medium supplemented with 10% dextran coated charcoal stripped fetal bovine serum (DCC-FBS) assay medium) in place of 10% FBS to deplete internal stores of steroids. MCF-7 cells were removed from maintenance flasks using cell dissociation medium (Ca++/Mg++ free HBSS (phenol red-free) supplemented with 10 mM HEPES and 2 mM EDTA). Cells were washed twice with assay medium and adjusted to 80,000 cells/mL. Approximately 100 μL (8,000 cells) were added to flat-bottom microculture wells (Costar 3596) and incubated at 37° C. in a 5% CO2 humidified incubator for 48 hours to allow for cell adherence and equilibration after transfer. Serial dilutions of drugs or DMSO as a diluent control were prepared in assay medium and 50 μL transferred to triplicate microcultures followed by 50 μL assay medium for a final volume of 200 μL. After an additional 48 hours at 37° C. in a 5% CO2 humidified incubator, microcultures were pulsed with tritiated thymidine (1 uCi/well) for 4 hours. Cultures were terminated by freezing at −70° C. for 24 hours followed by thawing and harvesting of microcultures using a Skatron Semiautomatic Cell Harvester. Samples were counted by liquid scintillation using a Wallac BetaPlace β counter. Results in Table 4 below show the IC50 for certain compounds of the present invention.

In data set [5] the test system is ovariectomized (OVX) female Sprague Dawley rats. As to conditions: rat, in vivo, po, 4 days. As to the method: In the examples illustrating the methods, a post-menopausal model was used in which effects of different treatments upon circulating lipids were determined.
as §1, §2, §3, §4

Broadly, the IC50 is the concentration that gives 50% inhibition. In the case of `Cl.Oc1ccc(-c2ccc3cc(O)ccc3c2Cc2ccc(OCCN3CCCCC3)cc2)cc1` [Example 2, [2-(4-Hydroxyphenyl)-6-hydroxynaphthalen-1-yl][4-[2-(1-piperidinyl)ethoxy]phenyl]methane hydrochloride], in data set [1], the inhibition in vivo at 0.01 mg/kg is 34.2%. Also, the inhibition in vivo at 0.1 mg/kg in data set [1] is 63%. Further, in data set [1], the inhibition in vivo at 1 mg/kg was determined as 78.1%. The inhibition in vivo at 10 mg/kg in data set [1] was 58.8%. Besides, the “Uterine EPO (V. max)” value in data set [2] (0.01 mg/kg) stood at 4.5; in data set [2] (0.1 mg/kg), 4.5; in data set [2] (1 mg/kg) it was 4.8; in data set [2] (10 mg/kg), 4.2. Moreover, the “Distal Femur Metaphysis (X-ray Image Analysis-Gray Score)” value in data set [3] (Table 3, oral daily 35 days in 20% cyclodextrin, 0.01 mg/kg, OVX control 7.2 ± 2.2, Sham 44.7 ± 6.4) is 19.6 ± 3.3; in data set [3] (Table 3, oral daily 35 days in 20% cyclodextrin, 0.1 mg/kg, OVX control 7.2 ± 2.2, Sham 44.7 ± 6.4), 25.7 ± 5.9; in data set [3] (Table 3, oral daily 35 days in 20% cyclodextrin, 1.0 mg/kg, OVX control 7.2 ± 2.2, Sham 44.7 ± 6.4), 21.5 ± 3.2; in data set [3] (Table 3, oral daily 35 days in 20% cyclodextrin, 10.0 mg/kg, OVX control 7.2 ± 2.2, Sham 44.7 ± 6.4), 30.0 ± 4.5. In addition, the IC50 in data set [4] worked out at 0.1 nM. Also, the “Uterine Weight (% increase vs. OVX)” value in data set [5] (0.01 mg/kg) was 2.4%; in data set [5] (0.1 mg/kg) it was 24.6%; in data set [5] (1 mg/kg), 4.1%; in data set [5] (10 mg/kg) it was 2.6%.
Turning to `O=C(Oc1ccc(-c2ccc3cc(OC(=O)c4ccccc4)ccc3c2Cc2ccc(OCCN3CCCCC3)cc2)cc1)c1ccccc1` [Example 3, [2-(4-Benzoyloxyphenyl)-6-benzoyloxynaphthalen-1-yl][4-[2-(1-piperidinyl)ethoxy]phenyl]methane], the inhibition in vivo at 0.01 mg/kg in data set [1] turned out to be 33.3%. Moreover, the inhibition in vivo at 0.1 mg/kg in data set [1] came out at 56.7%. Besides, in data set [1], the inhibition in vivo at 1 mg/kg came out at 63.6%. In addition, in data set [1], the inhibition in vivo at 10 mg/kg came to 74.7%. Further, the “Uterine EPO (V. max)” value is on record as 5.4 in data set [2] (0.01 mg/kg), 4.2 in data set [2] (0.1 mg/kg), 4.2 in data set [2] (1 mg/kg) and 4.8 in data set [2] (10 mg/kg). In addition, the “Distal Femur Metaphysis (X-ray Image Analysis-Gray Score)” value is 14.5 ± 3.6 in data set [3] (Table 2, oral daily 35 days in 20% cyclodextrin, 0.1 mg/kg, OVX control 5.5 ± 0.6, Sham 30.5 ± 4.3); 31.4 ± 5.8 in data set [3] (Table 2, oral daily 35 days in 20% cyclodextrin, 1.0 mg/kg, OVX control 5.5 ± 0.6, Sham 30.5 ± 4.3); 26.6 ± 6.3 in data set [3] (Table 2, oral daily 35 days in 20% cyclodextrin, 10.0 mg/kg, OVX control 5.5 ± 0.6, Sham 30.5 ± 4.3). In data set [4], the IC50 came out at 0.7 nM. The “Uterine Weight (% increase vs. OVX)” value in data set [5] (0.01 mg/kg) stood at 2.0%; in data set [5] (0.1 mg/kg), 7.1%; in data set [5] (1 mg/kg), 0.0%; in data set [5] (10 mg/kg), 4.5%.
